Measured values taken from patent US20150290306A1, “COMPOSITIONS AND METHODS FOR DIAGNOSIS AND TREATMENT OF MALIGNANT GLIOMAS” (priority 2012, published 2015).

Legend:
PBMCs = assay: PBMC culture with candidate peptides for 14 days, IFN-γ and IL-5 in supernatant by ELISA; type: cell-based, human; details: for IFN-γ/IL-5 ratio (geometric mean): peptide 10 μg/mL
Text: Measurement of antigen-specific T cell responses in the peripheral blood in humans differs depending on whether responses are high affinity interactions with foreign (viral) epitopes or lower affinity interactions involving recognition of self-antigens. […] Given that T cell responses directed against MAGE and IL-13Rα2 antigens also involve T cells with low affinity to these self-antigens, antigen-specific responses were quantified based on cytokine secretion, as recently described in a phase I study of patients with MS (Viglietta V, et al: Neurology 2008, 71(12):917-924). Cytokine production was quantified by ELISA, defining a positive T cell response for each patient as the amounts of IFN-γ or IL-5 that were >50 pg/mL and two standard deviations above the mean cytokine levels secreted after stimulation of cells from that patient with negative control MBP peptide.
Twenty-five mL of blood from patients or healthy subjects was obtained under an IRB-approved protocol. All samples of blood from patients were taken at the time of surgery. […] All tumor-bearing patients received similar doses of steroids and anti-epileptic medications at the time of tumor debulking surgery prior to obtaining peripheral blood for these studies. T cell responses in patients with meningiomas controlled for influences of steroids on antigen responsiveness and cytokine balance. Tumor tissue was independently confirmed in all cases by formal pathological analysis. PBMCs were purified from heparinized blood by density gradient centrifugation using Ficoll-Hypaque (GE Healthcare Biosciences), and cells were then washed with PBS and viable cells quantified by trypan-blue staining.
Freshly isolated PBMCs were plated at 2×10^5 cells/well in 200 μl of serum-free X-VIVO15 (X15) media (Lonza) in 96-well round-bottom cell culture plates. Candidate peptides, in addition to a negative control peptide derived from MBP were added at a concentration of 10 μg/mL and anti-CD3 mAb was added at a concentration of 1 μg/mL. Six T cell cultures were established for each condition in each subject, and 100 IU/ml of IL-2 was added on the following day. Plates were incubated at 37° C. and 5% CO2 for 14 days, with media changed as needed, and the supernatant was harvested to evaluate T cell responses (cytokines) induced by each condition using ELISA. In a limited number (n=3) of patients, cytokine production was assessed after both 7 and 14 days. […] An IFN-γ ELISPOT assay was performed as previously described (Lv H, Havari E, et al: J Clin Invest, 121(4):1561-1573).
To detect T helper cell responses directed against the candidate peptides, IFN-γ and IL-5 were measured by ELISA using commercially available kits supplied by BD bioscience. IFN-γ was used as a prototypic Th1 cytokine and IL-5 was chosen as a prototypic cytokine released by Th2 cells because unlike IL-4 there would be no potential consumption by antigen-specific T cells in the culture conditions (Kourilsky P, Truffa-Bachi P: Trends Immunol 2001, 22(9):502-509).

DRB1*04 and *15 alleles = details: literature, Mycko et al. 2004; cited from earlier work

ENPVVHFFKNIVTPR [MBP85-99, reference compound]
mean cut-off for a positive cytokine response based on cytokine induced by control MBP peptide, IFN-γ (PBMCs; GBM patients): 123 pg/mL | mean cut-off for a positive cytokine response based on cytokine induced by control MBP peptide, IL-5 (PBMCs; GBM patients): 312 pg/mL | mean cut-off for a positive cytokine response based on cytokine induced by control MBP peptide, IFN-γ (PBMCs; healthy subjects): 895 pg/mL | HLA class II alleles shown to bind (experimental data) (DRB1*04 and *15 alleles): bind to both the DRB1*04 and *15 alleles

WQYFFPVIFSKASSSLQL [MAGE-A3143-160]
positive wells among 6 primary T cell responses (IFN-γ or IL-5 ELISA) (PBMCs; Healthy Subject 1): +++ (+++/++++ cell=3-4 positive wells) | positive wells among 6 primary T cell responses (IFN-γ or IL-5 ELISA) (PBMCs; Healthy Subject 2): +++ (+++/++++ cell=3-4 positive wells) | positive wells among 6 primary T cell responses (IFN-γ or IL-5 ELISA) (PBMCs; Healthy Subject 3): + (+/++ cell=1-2 positive wells) | positive wells among 6 primary T cell responses (IFN-γ or IL-5 ELISA) (PBMCs; Healthy Subject 4): +++++ (+++++/++++++ cell=5-6 positive wells) | positive wells among 6 primary T cell responses (IFN-γ or IL-5 ELISA) (PBMCs; Healthy Subject 5): ++ (+/++ cell=1-2 positive wells) | positive wells among 6 primary T cell responses (IFN-γ or IL-5 ELISA) (PBMCs; Healthy Subject 6): + (+/++ cell=1-2 positive wells) | positive wells among 6 primary T cell responses (IFN-γ or IL-5 ELISA) (PBMCs; Meningioma 4): + (+/++ cell=1-2 positive wells) | positive wells among 6 primary T cell responses (IFN-γ or IL-5 ELISA) (PBMCs; Meningioma 6): + (+/++ cell=1-2 positive wells) | positive wells among 6 primary T cell responses (IFN-γ or IL-5 ELISA) (PBMCs; Meningioma 7): + (+/++ cell=1-2 positive wells) | IFN-γ/IL-5 ratio, recurrent GBM patients compared to primary GBM patients (PBMCs; P<0.05): significantly lower | positive wells among 6 primary T cell responses (IFN-γ or IL-5 ELISA) (PBMCs; Primary GBM 1): ++++ (+++/++++ cell=3-4 positive wells) | positive wells among 6 primary T cell responses (IFN-γ or IL-5 ELISA) (PBMCs; Primary GBM 2): +++ (+++/++++ cell=3-4 positive wells) | positive wells among 6 primary T cell responses (IFN-γ or IL-5 ELISA) (PBMCs; Primary GBM 3): + (+/++ cell=1-2 positive wells) | positive wells among 6 primary T cell responses (IFN-γ or IL-5 ELISA) (PBMCs; Primary GBM 4): + (+/++ cell=1-2 positive wells) | positive wells among 6 primary T cell responses (IFN-γ or IL-5 ELISA) (PBMCs; Primary GBM 5): + (+/++ cell=1-2 positive wells) | positive wells among 6 primary T cell responses (IFN-γ or IL-5 ELISA) (PBMCs; Primary GBM 6): + (+/++ cell=1-2 positive wells) | positive wells among 6 primary T cell responses (IFN-γ or IL-5 ELISA) (PBMCs; Primary GBM 7): ++ (+/++ cell=1-2 positive wells) | positive wells among 6 primary T cell responses (IFN-γ or IL-5 ELISA) (PBMCs; Primary GBM 8): +++++ (+++++/++++++ cell=5-6 positive wells) | positive wells among 6 primary T cell responses (IFN-γ or IL-5 ELISA) (PBMCs; Recurrent GBM 1): + (+/++ cell=1-2 positive wells) | positive wells among 6 primary T cell responses (IFN-γ or IL-5 ELISA) (PBMCs; Recurrent GBM 3): + (+/++ cell=1-2 positive wells) | positive wells among 6 primary T cell responses (IFN-γ or IL-5 ELISA) (PBMCs; Recurrent GBM 4): + (+/++ cell=1-2 positive wells) | IFN-γ/IL-5 ratio (geometric mean) (PBMCs; healthy subjects): 4.3 | IFN-γ/IL-5 ratio (geometric mean) (PBMCs; patients with primary GBMs): 0.3 | IFN-γ/IL-5 ratio (geometric mean) (PBMCs; patients with recurrent GBMs): 0.4
